# Reference: patent US20170233409A1, “TYPE IV SECRETION SYSTEM INHIBITORS” (priority 2016, published 2017)
# Tested on: type V secretion system-mediated release of the cytotoxin VacA
# Assay type: cell-based, H. pylori
compound,measurement,value
"COc1ccc(Cc2cc(=O)n3c(c2C2CC2)SC[C@H]3C(=O)O)c2ccccc12 [KSK85, (3R)-7-[(4-methoxynaphthalen-1-yl)methyl]-8-cyclopropyl-5-oxo-2,3-dihydro-5H-[1,3]thiazolo[3,2-a]pyridine-3-carboxylic acid]",type V secretion system-mediated release of VacA into cell culture supernatants,did not impair
"O=C(O)[C@@H]1CSc2c(C3CC3)c(Cc3cccc4ccccc34)cc(=O)n21 [Compound C10, (3R)-8-cyclopropyl-7-(naphthalen-1-ylmethyl)-5-oxo-3,5-dihydro-2H-thiazolo[3,2-a]pyridine-3-carboxylic acid]",type V secretion system-mediated release of VacA into cell culture supernatants,did not impair
